Assay: Human HepG2 cell viability assay in 384 well format
Type: toxicity, cell-based
Design: dose 125 nL, time 70.5 hour; concentration not given beside the values
Conditions: HepG2 cells, read-out: Inhibition
Compound `Cc1nn(C)c2c(=O)n(CC(=O)NC3CCCCC3)ccc12` has a cytotoxicity at 70.5 h of -1.28%.
`CCC(C)NC(=O)Cn1ccc2sc(C)cc2c1=O` (stereo not drawn) gave a cytotoxicity at 70.5 h of -0.388%.
For `CN1CCCC1CCNC(=O)Nc1ccccc1` (stereo not drawn), the cytotoxicity at 70.5 h was -5%.
Work on `CC(=O)N1CC=C(n2c(=O)[nH]c3ccccc32)CC1` yielded a cytotoxicity at 70.5 h of -5.58%.
Compound `Cc1ccccc1CSc1ncccc1C(=O)N(C)C` has a cytotoxicity at 70.5 h of -2.93%.
Compound `COc1ccc(C(=O)Nc2cccc(C(N)=O)c2)c(OC)n1` has a cytotoxicity at 70.5 h of 9.82%.
In the case of `COc1ccc(C(=O)N(CCO)Cc2ccccc2)c(OC)n1`, the cytotoxicity at 70.5 h is reported as 21.2%.
Work on `CSc1ncccc1C(=O)NCc1ccc(N(C)C)cc1` yielded a cytotoxicity at 70.5 h of 40.2%.
In the case of `O=C(Nc1cccc2c1CCCC2)c1cccnc1N1CCCNCC1`, the cytotoxicity at 70.5 h is reported as -5.23%.
Work on `CCC(CC)NC(=O)c1cccnc1N1CCCC1c1ccccn1` (stereo not drawn) yielded a cytotoxicity at 70.5 h of 16.4%.
`CCCNc1ccc(C(=O)NCCc2cccc(Cl)c2)cn1` gave a cytotoxicity at 70.5 h of -4.77%.
For `O=C(NC[C@@H]1CCCO1)c1cccnc1N1CCCC1c1ccccn1` (stereo partly drawn), the cytotoxicity at 70.5 h was -3.08%.
With `O=C1CC2(CCN(C(=O)c3ccccn3)CC2)Oc2c(Cl)cc(Cl)cc21` the cytotoxicity at 70.5 h was -6.72%.
`COc1ccc2c(c1)OC1(CCN(Cc3ccc(C)cc3)CC1)CC2=O` showed a cytotoxicity at 70.5 h of 7.29%.
`CN(C)C(=O)CN1CCC2(CC1)CC(=O)c1ccc3ccccc3c1O2` gave a cytotoxicity at 70.5 h of -6.26%.
For `O=C(c1cccnc1SCc1ccccc1)N1CCOCC1`, the cytotoxicity at 70.5 h was 0.0391%.
In the case of `O=C(NCCCn1ccnc1)c1cccnc1OCC(F)(F)F`, the cytotoxicity at 70.5 h is reported as 4.36%.
In the case of `CCCSc1ncccc1C(=O)NCc1ccc(S(N)(=O)=O)cc1`, the cytotoxicity at 70.5 h is reported as -4.05%.
With `O=C(N[C@H]1CCCC[C@@H]1O)c1cccc(-c2nc3ccccc3[nH]2)c1` the cytotoxicity at 70.5 h was -2.51%.
For `O=C(NC[C@H]1CCCC[C@H]1O)c1ccc2nc(-c3ccco3)[nH]c2c1`, the cytotoxicity at 70.5 h was -1.94%.
With `CCC(C)CNC(=O)[C@@H]1CCCN1c1nccc(Nc2ccccc2)n1` (stereo partly drawn) the cytotoxicity at 70.5 h was 1.56%.
In the case of `CC(=O)N1N=C(c2ccccc2)OC1C(=O)NCCc1ccc(C)cc1` (stereo not drawn), the cytotoxicity at 70.5 h is reported as 0.438%.
`CC(=O)N1N=C(c2ccccc2)OC1C(=O)NCCc1ccc(Cl)cc1` (stereo not drawn) showed a cytotoxicity at 70.5 h of 8.17%.
`CC(=O)N1N=C(c2ccccc2)OC1C(=O)N(C)Cc1ccccc1` (stereo not drawn) showed a cytotoxicity at 70.5 h of -4.44%.
`Cc1ccc(C)c(-n2ncc(C(=O)NCC3COC(C)(C)O3)c2N)c1` (stereo not drawn) gave a cytotoxicity at 70.5 h of 18.9%.
With `CC(C)c1ccc(-n2ncc(C(=O)N(C)C3CCN(C)CC3)c2N)cc1` the cytotoxicity at 70.5 h was -2.55%.
`CC(=O)N1N=C(c2cccs2)OC1C(=O)NCCc1cccc(Cl)c1` (stereo not drawn) gave a cytotoxicity at 70.5 h of 28.8%.
`CC(=O)N1N=C(Cc2ccccc2)OC1C(=O)NCC(=O)OC(C)(C)C` (stereo not drawn) showed a cytotoxicity at 70.5 h of -4.37%.
In the case of `CC(=O)N1N=C(c2ccco2)OC1C(=O)NCCc1ccc(F)cc1` (stereo not drawn), the cytotoxicity at 70.5 h is reported as 0.102%.
Compound `COc1ccc(NC(=O)C2OC(c3cccs3)=NN2C(C)=O)cc1` (stereo not drawn) has a cytotoxicity at 70.5 h of -1.98%.
In the case of `CC(=O)N1N=C(c2cccs2)OC1C(=O)Nc1ccc(C)cc1` (stereo not drawn), the cytotoxicity at 70.5 h is reported as 1.28%.
For `CC(=O)N1N=C(c2cccs2)OC1C(=O)NCc1ccc(C)o1` (stereo not drawn), the cytotoxicity at 70.5 h was -1.09%.
Work on `Nc1c(N2CCCC2)ncnc1N1CCOCC1` yielded a cytotoxicity at 70.5 h of 20.6%.
Compound `CC1CCN(C(=O)c2cnc3cc(C(=O)N(C)C)n(C)c3c2)CC1` has a cytotoxicity at 70.5 h of 6.93%.
`Nc1c(N2CCOCC2)ncnc1N1CCOCC1` showed a cytotoxicity at 70.5 h of 0.518%.
In the case of `COc1c(C(=O)N2CCOCC2)cnc2c1c(C)nn2C`, the cytotoxicity at 70.5 h is reported as 0.987%.
With `Cc1nc2cc(C(=O)N(CCC#N)CC3CCCO3)ccc2[nH]1` (stereo not drawn) the cytotoxicity at 70.5 h was -1.19%.
With `CC(C)(Oc1ccc(C(N)=O)cc1)C(=O)N(CCC#N)CC1CCCO1` (stereo not drawn) the cytotoxicity at 70.5 h was 6.27%.
For `Cc1nn(-c2ccccc2Cl)c(C)c1CCC(=O)NCCS(C)(=O)=O`, the cytotoxicity at 70.5 h was 1.1%.
For `CC(C)(C)C(=O)CN1Cc2ccccc2NCCC1=O`, the cytotoxicity at 70.5 h was 0.78%.
`O=C1CCNc2cc3c(cc2CN1CC1CC1)OCO3` showed a cytotoxicity at 70.5 h of 0.558%.
Work on `COC(=O)CN1Cc2cc3c(cc2NCCC1=O)OCO3` yielded a cytotoxicity at 70.5 h of -9.74%.
In the case of `CCCC(O)CN1CC(C)(C)CN(C(=O)c2ccccc2)CC1=O` (stereo not drawn), the cytotoxicity at 70.5 h is reported as -10.1%.
`CC1(C)CNC(=O)CN(C(=O)CCc2ccccc2)C1` showed a cytotoxicity at 70.5 h of -3.7%.
Work on `CCCS(=O)(=O)N1CC(=O)N(CCCc2ccccc2)CC(O)C1` (stereo not drawn) yielded a cytotoxicity at 70.5 h of 10.8%.
`O=C1CN(S(=O)(=O)CC(F)(F)F)CC(O)CN1CCCc1ccccc1` (stereo not drawn) showed a cytotoxicity at 70.5 h of -3.16%.
`CN(C)C(=O)CN1CCN(Cc2coc(-c3cccc(F)c3)n2)CC1` gave a cytotoxicity at 70.5 h of -11.2%.
For `Cc1nccc(CNC(=O)CCc2c(C)nc3cc(O)nn3c2C)n1`, the cytotoxicity at 70.5 h was -5.73%.
With `CC(C)Cc1cc(NC(=O)c2cccnc2)n(C)n1` the cytotoxicity at 70.5 h was -9.43%.
`Cn1ccnc1COc1ccc(CN2CCC(C(N)=O)CC2)cc1` showed a cytotoxicity at 70.5 h of -11.1%.
`Cc1cnn(C2CCCN(C(=O)c3ccc(C(N)=O)cn3)C2)c1` (stereo not drawn) gave a cytotoxicity at 70.5 h of 3.91%.
`CNC(=O)CCNC(=O)CCc1c(C)nc2cc(O)nn2c1C` showed a cytotoxicity at 70.5 h of -4.97%.
For `CCOc1ccc(Cl)c(C(=O)N2CCN(c3ccncc3)CC2)n1`, the cytotoxicity at 70.5 h was -13.6%.
`O=C(c1ccc2c(c1)OCO2)N1CCC(Nc2cccnn2)CC1` showed a cytotoxicity at 70.5 h of 9.12%.
In the case of `Cc1ccc(NC2CCN(C(=O)c3ccc4c(c3)CCC4)CC2)nn1`, the cytotoxicity at 70.5 h is reported as -0.715%.
`N#Cc1cccc(C(=O)N2CCC(Nc3cccnn3)CC2)c1` showed a cytotoxicity at 70.5 h of -19.9%.
In the case of `Cc1cccc(CNC(=O)CCc2c(C)nc3cc(O)nn3c2C)n1`, the cytotoxicity at 70.5 h is reported as -14%.
`Cc1oc(C(=O)O)cc1S(=O)(=O)Nc1ccccc1F` showed a cytotoxicity at 70.5 h of -11.3%.
With `Cc1oc(C(=O)O)cc1S(=O)(=O)Nc1cc(F)ccc1F` the cytotoxicity at 70.5 h was 5.73%.
`Cc1ccsc1CNC(=O)CCc1c(C)nc2cc(O)nn2c1C` gave a cytotoxicity at 70.5 h of -10.8%.
`Cc1nc(CN2CCCN(c3nccs3)CC2)no1` gave a cytotoxicity at 70.5 h of 10.6%.
For `CCN(CC)CC(=O)N(C)C(c1cccc(F)c1)c1ccccn1` (stereo not drawn), the cytotoxicity at 70.5 h was 13.5%.
In the case of `Cc1ccc(NC2CCN(C(=O)c3sccc3C3CC3)CC2)nn1`, the cytotoxicity at 70.5 h is reported as -8.46%.
In the case of `COCCN1CCC(NCc2c(F)cccc2F)C1` (stereo not drawn), the cytotoxicity at 70.5 h is reported as -0.0127%.
`CC(C)c1noc(CN2CCCN(Cc3cccs3)CC2)n1` gave a cytotoxicity at 70.5 h of -25.6%.
`Cc1cc(C2CCCN(C(=O)CCc3cscn3)C2)n[nH]1` (stereo not drawn) gave a cytotoxicity at 70.5 h of -19.6%.
With `CSc1ccc(C(=O)N2CCOCC2c2c(C)nn(C)c2C)o1` (stereo not drawn) the cytotoxicity at 70.5 h was -4.66%.
`Cc1cc(C(=O)N2CCCC(C)C2)ccc1NCC(=O)N1CCOCC1` (stereo not drawn) showed a cytotoxicity at 70.5 h of -2.64%.
`O=C(Nc1cc(C(F)(F)F)c[nH]c1=O)N1CCSCC1` showed a cytotoxicity at 70.5 h of -8.45%.
Work on `CC1CN(CCc2ccccn2)CCN1c1ccc2nncn2n1` (stereo not drawn) yielded a cytotoxicity at 70.5 h of -3.22%.
With `Cn1cc(C(=O)Nc2cc(F)ccc2OCC2CCCO2)ccc1=O` (stereo not drawn) the cytotoxicity at 70.5 h was -7.6%.
Compound `Cc1ccc(NC2CCN(C(=O)c3cscn3)CC2)nn1` has a cytotoxicity at 70.5 h of 0.539%.
For `Cc1nnc2ccc(N3CCN(CCc4ccccn4)CC3)nn12`, the cytotoxicity at 70.5 h was -0.337%.
For `NC(=O)c1cc(C2CCCN(C(=O)CCc3ccncc3)C2)n[nH]1` (stereo not drawn), the cytotoxicity at 70.5 h was -4.91%.
In the case of `Cc1nn(C)c(C)c1C1COCCN1C(=O)CCc1ccccc1` (stereo not drawn), the cytotoxicity at 70.5 h is reported as -1.71%.
`O=C(CCN1CCN(c2ccc3nncn3n2)CC1)N1CCCCC1` gave a cytotoxicity at 70.5 h of -5.89%.
In the case of `CCN(Cc1ccc2c(c1)OCO2)S(=O)(=O)N(C)C(C)C`, the cytotoxicity at 70.5 h is reported as -1.76%.
With `CCN(CC)S(=O)(=O)N(C)Cc1ccc2c(c1)OCCO2` the cytotoxicity at 70.5 h was -2.26%.
Compound `CCc1nnc(CN2CCCCC2Cn2cncn2)o1` (stereo not drawn) has a cytotoxicity at 70.5 h of 10.6%.
Work on `c1ccc(CCN2CCOC(CNc3cccnn3)C2)nc1` (stereo not drawn) yielded a cytotoxicity at 70.5 h of -12.5%.
`Cc1nc(C2CCCN(C(=O)CCCn3cccn3)C2)sc1C` (stereo not drawn) gave a cytotoxicity at 70.5 h of -15.3%.
Work on `O=C(O)[C@@H]1CCCN1c1nccc(Nc2ccccc2)n1` yielded a cytotoxicity at 70.5 h of 16%.
Compound `O=C(O)c1csc(NCCc2ccccc2)n1` has a cytotoxicity at 70.5 h of -1.2%.
